Results from patent US20050112573A1, “Method of detecting toxic substance” (priority 2001, published 2005).

Tested on: yeast genes (level of expressed mRNA)
Test: DNA chip analysis of expressed mRNA of yeast genes after 2 h culture with a toxic chemical substance
Format: cell-based, Saccharomyces cerevisiae S288C
Method in brief: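 S. cerevisiae S288C grown at 25° C in YPD; toxicant added at log phase at growth-inhibitory, non-lethal levels for 2 h, untreated cells as control. Poly(A) mRNA reverse-transcribed with Cy3/Cy5-dUTP, hybridized to whole-genome chip at 65° C >12 h; value is fluorescence ratio versus untreated.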

C=CC=O [(14), acrolein]
level of expressed mRNA in the presence of chemical substance/in its absence (gene YAL012W): 0.9
The level of expressed mRNA in the presence of chemical substance/absence: YAL014C (gene YAL014C): 1.8
The level of expressed mRNA in the presence of chemical substance/absence: YAL017W (gene YAL017W): 1.1
The level of expressed mRNA in the presence of chemical substance/absence: YAL018C (gene YAL018C): 1.0
level of expressed mRNA in the presence of chemical substance/in its absence (gene YAL038W): 0.5
level of expressed mRNA in the presence of chemical substance/in its absence (gene YAL044C): 1.4
The level of expressed mRNA in the presence of chemical substance/absence: YAL049C (gene YAL049C): 2.0
level of expressed mRNA in the presence of chemical substance/in its absence (gene YAL054C): 1.3
The level of expressed mRNA in the presence of chemical substance/absence: YAR047C (gene YAR047C): 1.3
The level of expressed mRNA in the presence of chemical substance/absence: YAR064W (gene YAR064W): 1.1
level of expressed mRNA in the presence of chemical substance/in its absence (gene YAR071W): 1.1
level of expressed mRNA in the presence of chemical substance/in its absence (gene YBL001C): 1.5
The level of expressed mRNA in the presence of chemical substance/absence: YBL044W (gene YBL044W): 0.9
The level of expressed mRNA in the presence of chemical substance/absence: YBL100C (gene YBL100C): 0.9
The level of expressed mRNA in the presence of chemical substance/absence: YBR012C (gene YBR012C): 0.9
The level of expressed mRNA in the presence of chemical substance/absence: YBR013C (gene YBR013C): 2.5
level of expressed mRNA in the presence of chemical substance/in its absence (gene YBR014C): 1.2
level of expressed mRNA in the presence of chemical substance/in its absence (gene YBR023C): 0.8
level of expressed mRNA in the presence of chemical substance/in its absence (gene YBR029C): 0.9
level of expressed mRNA in the presence of chemical substance/in its absence (gene YBR035C): 1.3
level of expressed mRNA in the presence of chemical substance/in its absence (gene YBR050C): 1.3
The level of expressed mRNA in the presence of chemical substance/absence: YBR051W (gene YBR051W): 1.0
The level of expressed mRNA in the presence of chemical substance/absence: YBR063C (gene YBR063C): 1.7
The level of expressed mRNA in the presence of chemical substance/absence: YBR066C (gene YBR066C): 1.1
level of expressed mRNA in the presence of chemical substance/in its absence (gene YBR068C): 1.8
level of expressed mRNA in the presence of chemical substance/in its absence (gene YBR111C): 1.6
The level of expressed mRNA in the presence of chemical substance/absence: YBR124W (gene YBR124W): 1.0
level of expressed mRNA in the presence of chemical substance/in its absence (gene YBR126C): 0.7
The level of expressed mRNA in the presence of chemical substance/absence: YBR129C (gene YBR129C): 1.6
level of expressed mRNA in the presence of chemical substance/in its absence (gene YBR145W): 2.2
The level of expressed mRNA in the presence of chemical substance/absence: YBR162C (gene YBR162C): 0.5
level of expressed mRNA in the presence of chemical substance/in its absence (gene YBR183W): 1.3
level of expressed mRNA in the presence of chemical substance/in its absence (gene YBR222C): 0.5
The level of expressed mRNA in the presence of chemical substance/absence: YBR255W (gene YBR255W): 1.1
The level of expressed mRNA in the presence of chemical substance/absence: YBR281C (gene YBR281C): 0.9
The level of expressed mRNA in the presence of chemical substance/absence: YBR287W (gene YBR287W): 0.8
level of expressed mRNA in the presence of chemical substance/in its absence (gene YBR299W): 1.4
level of expressed mRNA in the presence of chemical substance/in its absence (gene YCL009C): 0.7
The level of expressed mRNA in the presence of chemical substance/absence: YCL044C (gene YCL044C): 1.0
The level of expressed mRNA in the presence of chemical substance/absence: YCL056C (gene YCL056C): 2.2
level of expressed mRNA in the presence of chemical substance/in its absence (gene YCL064C): 0.8
The level of expressed mRNA in the presence of chemical substance/absence: YCR007C (gene YCR007C): 1.7
level of expressed mRNA in the presence of chemical substance/in its absence (gene YCR037C): 0.8
level of expressed mRNA in the presence of chemical substance/in its absence (gene YCR048W): 0.9
level of expressed mRNA in the presence of chemical substance/in its absence (gene YCR098C): 1.1
level of expressed mRNA in the presence of chemical substance/in its absence (gene YDL022W): 0.8
The level of expressed mRNA in the presence of chemical substance/absence: YDL046W (gene YDL046W): 1.2
The level of expressed mRNA in the presence of chemical substance/absence: YDL089W (gene YDL089W): 1.2
The level of expressed mRNA in the presence of chemical substance/absence: YDL173W (gene YDL173W): 2.1
The level of expressed mRNA in the presence of chemical substance/absence: YDL193W (gene YDL193W): 1.1
The level of expressed mRNA in the presence of chemical substance/absence: YDL233W (gene YDL233W): 1.1
level of expressed mRNA in the presence of chemical substance/in its absence (gene YDR009W): 1.5
level of expressed mRNA in the presence of chemical substance/in its absence (gene YDR019C): 1.6
The level of expressed mRNA in the presence of chemical substance/absence: YDR071C (gene YDR071C): 2.0
The level of expressed mRNA in the presence of chemical substance/absence: YDR078C (gene YDR078C): 1.8
The level of expressed mRNA in the presence of chemical substance/absence: YDR090C (gene YDR090C): 0.9
The level of expressed mRNA in the presence of chemical substance/absence: YDR109C (gene YDR109C): 1.0
The level of expressed mRNA in the presence of chemical substance/absence: YDR128W (gene YDR128W): 1.0
The level of expressed mRNA in the presence of chemical substance/absence: YDR133C (gene YDR133C): 0.6
The level of expressed mRNA in the presence of chemical substance/absence: YDR140W (gene YDR140W): 3.2
The level of expressed mRNA in the presence of chemical substance/absence: YDR221W (gene YDR221W): 1.0
The level of expressed mRNA in the presence of chemical substance/absence: YDR250C (gene YDR250C): 0.9
The level of expressed mRNA in the presence of chemical substance/absence: YDR271C (gene YDR271C): 1.4
The level of expressed mRNA in the presence of chemical substance/absence: YDR278C (gene YDR278C): 0.9
The level of expressed mRNA in the presence of chemical substance/absence: YDR281C (gene YDR281C): 1.2
The level of expressed mRNA in the presence of chemical substance/absence: YDR316W (gene YDR316W): 0.7
The level of expressed mRNA in the presence of chemical substance/absence: YDR338C (gene YDR338C): 1.0
The level of expressed mRNA in the presence of chemical substance/absence: YDR366C (gene YDR366C): 1.4
level of expressed mRNA in the presence of chemical substance/in its absence (gene YDR380W): 0.6
level of expressed mRNA in the presence of chemical substance/in its absence (gene YDR410C): 1.3
The level of expressed mRNA in the presence of chemical substance/absence: YDR421W (gene YDR421W): 1.2
The level of expressed mRNA in the presence of chemical substance/absence: YDR425W (gene YDR425W): 1.3
The level of expressed mRNA in the presence of chemical substance/absence: YDR485C (gene YDR485C): 1.1
level of expressed mRNA in the presence of chemical substance/in its absence (gene YDR487C): 2.5
level of expressed mRNA in the presence of chemical substance/in its absence (gene YDR502C): 0.8
The level of expressed mRNA in the presence of chemical substance/absence: YDR504C (gene YDR504C): 1.3
level of expressed mRNA in the presence of chemical substance/in its absence (gene YEL011W): 1.5
level of expressed mRNA in the presence of chemical substance/in its absence (gene YEL020C): 1.0
The level of expressed mRNA in the presence of chemical substance/absence: YEL044W (gene YEL044W): 0.6
level of expressed mRNA in the presence of chemical substance/in its absence (gene YER026C): 1.1
level of expressed mRNA in the presence of chemical substance/in its absence (gene YER069W): 1.3
The level of expressed mRNA in the presence of chemical substance/absence: YER092W (gene YER092W): 1.2
The level of expressed mRNA in the presence of chemical substance/absence: YER182W (gene YER182W): 1.9
The level of expressed mRNA in the presence of chemical substance/absence: YFL042C (gene YFL042C): 1.2
level of expressed mRNA in the presence of chemical substance/in its absence (gene YFR015C): 3.1
The level of expressed mRNA in the presence of chemical substance/absence: YFR026C (gene YFR026C): 1.0
The level of expressed mRNA in the presence of chemical substance/absence: YFR056C (gene YFR056C): 0.6
level of expressed mRNA in the presence of chemical substance/in its absence (gene YGL001C): 1.1
level of expressed mRNA in the presence of chemical substance/in its absence (gene YGL022W): 0.5
level of expressed mRNA in the presence of chemical substance/in its absence (gene YGL039W): 0.9
The level of expressed mRNA in the presence of chemical substance/absence: YGL041C (gene YGL041C): 1.2
The level of expressed mRNA in the presence of chemical substance/absence: YGL045W (gene YGL045W): 1.1
The level of expressed mRNA in the presence of chemical substance/absence: YGL057C (gene YGL057C): 1.5
The level of expressed mRNA in the presence of chemical substance/absence: YGL088W (gene YGL088W): 1.4
level of expressed mRNA in the presence of chemical substance/in its absence (gene YGL104C): 1.0
level of expressed mRNA in the presence of chemical substance/in its absence (gene YGL134W): 1.1
level of expressed mRNA in the presence of chemical substance/in its absence (gene YGL154C): 1.1
The level of expressed mRNA in the presence of chemical substance/absence: YGL183C (gene YGL183C): 1.7
level of expressed mRNA in the presence of chemical substance/in its absence (gene YGL209W): 1.6
The level of expressed mRNA in the presence of chemical substance/absence: YGL223C (gene YGL223C): 0.9
level of expressed mRNA in the presence of chemical substance/in its absence (gene YGL253W): 0.5
The level of expressed mRNA in the presence of chemical substance/absence: YGR038W (gene YGR038W): 1.4
level of expressed mRNA in the presence of chemical substance/in its absence (gene YGR060W): 0.8
The level of expressed mRNA in the presence of chemical substance/absence: YGR139W (gene YGR139W): 0.9
The level of expressed mRNA in the presence of chemical substance/absence: YGR156W (gene YGR156W): 1.6
The level of expressed mRNA in the presence of chemical substance/absence: YGR198W (gene YGR198W): 0.8
The level of expressed mRNA in the presence of chemical substance/absence: YGR210C (gene YGR210C): 0.8
The level of expressed mRNA in the presence of chemical substance/absence: YGR211W (gene YGR211W): 0.4
The level of expressed mRNA in the presence of chemical substance/absence: YGR237C (gene YGR237C): 0.6
The level of expressed mRNA in the presence of chemical substance/absence: YGR243W (gene YGR243W): 1.9
The level of expressed mRNA in the presence of chemical substance/absence: YGR250C (gene YGR250C): 1.3
The level of expressed mRNA in the presence of chemical substance/absence: YGR266W (gene YGR266W): 0.8
The level of expressed mRNA in the presence of chemical substance/absence: YGR277C (gene YGR277C): 1.5
level of expressed mRNA in the presence of chemical substance/in its absence (gene YGR282C): 1.0
